Data published in ChEMBL document CHEMBL5260807, “Discovery of liver-directed glucokinase activator having anti-hyperglycemic effect without hypoglycemia” (Eur J Med Chem, 2017).
Each block holds one molecule with its values, some of them ahead of it.

Experiments:
Hexokinase-4 = biological target: T1, Hexokinase-4 (Homo sapiens, UniProt P35557); assay: Activation of recombinant human glucokinase assessed as increase in maximal activation by measuring accumulation of NADH in presence of S0.5 of glucose and NAD by plate reader analysis
T1 sequence (P35557 whole entry): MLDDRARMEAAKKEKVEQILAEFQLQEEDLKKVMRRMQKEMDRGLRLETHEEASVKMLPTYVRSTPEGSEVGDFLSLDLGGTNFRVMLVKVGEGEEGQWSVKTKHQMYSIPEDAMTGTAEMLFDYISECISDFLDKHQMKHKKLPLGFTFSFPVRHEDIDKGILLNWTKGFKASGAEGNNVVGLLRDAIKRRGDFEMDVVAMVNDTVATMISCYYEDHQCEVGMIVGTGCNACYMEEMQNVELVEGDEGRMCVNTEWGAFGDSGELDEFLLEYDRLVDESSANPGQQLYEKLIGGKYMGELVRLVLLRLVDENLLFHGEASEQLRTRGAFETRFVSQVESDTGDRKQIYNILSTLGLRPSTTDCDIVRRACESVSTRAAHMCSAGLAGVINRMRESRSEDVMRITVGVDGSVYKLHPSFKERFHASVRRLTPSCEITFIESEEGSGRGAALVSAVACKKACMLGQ

[1] = biological target: T2, Hexokinase-4 (Rattus norvegicus) (UniProt P17712); assay: Activation of glucokinase in rat Primary hepatocytes assessed as fold increase in glycogen synthesis at 10 uM incubated for 30 mins using [U14C]-D-glucose as substrate by Microbeta TriLux luminescence counter analysis; type: cell-based; details: Primary hepatocyte, filed as activator
T2 sequence (whole entry): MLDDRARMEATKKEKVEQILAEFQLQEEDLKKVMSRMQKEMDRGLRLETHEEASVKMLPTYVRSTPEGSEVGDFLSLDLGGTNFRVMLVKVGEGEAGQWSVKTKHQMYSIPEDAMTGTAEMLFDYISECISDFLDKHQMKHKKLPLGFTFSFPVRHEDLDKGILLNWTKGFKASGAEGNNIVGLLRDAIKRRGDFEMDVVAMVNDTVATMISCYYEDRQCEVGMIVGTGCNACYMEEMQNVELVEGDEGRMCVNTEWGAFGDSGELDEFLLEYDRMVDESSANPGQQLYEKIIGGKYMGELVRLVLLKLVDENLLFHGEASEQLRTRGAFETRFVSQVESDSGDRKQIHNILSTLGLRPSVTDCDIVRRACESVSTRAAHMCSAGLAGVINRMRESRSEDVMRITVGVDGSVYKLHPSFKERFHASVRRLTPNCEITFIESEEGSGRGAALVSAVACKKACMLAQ

[2] = biological target: T3, Hexokinase-4 (Homo sapiens) (UniProt P35557); assay: Activation of recombinant human glucokinase assessed as increase in maximal activation by measuring accumulation of NADH at 60 uM in presence of S0.5 of glucose and NAD by plate reader analysis; details: filed as activator
T3 sequence (whole entry): T1 sequence (P35557 whole entry)

[3] = Drug distribution in C57BL/6J mouse liver at 30 mg/kg,po and measured after 1 hrs by LC-MS/MS analysis; type: ADME, organism-based; details: read-out: Drug uptake
[4] = Drug uptake in C57BL/6J mouse plasma at 30 mg/kg,po and measured after 1 hrs; type: ADME, organism-based
[5] = Drug uptake in C57BL/6J mouse plasma at 30 mg/kg,po and measured after 3 hrs; type: ADME, organism-based
[6] = Drug distribution in C57BL/6J mouse liver at 30 mg/kg,po and measured after 3 hrs by LC-MS/MS analysis; type: ADME, organism-based; details: read-out: Drug uptake
[7] = AUC(0 to t) in C57BL/6J mouse at 30 mg/kg,po; type: ADME, organism-based; design: dose 30 mg/kg, route po; details: in vivo
[8] = Drug distribution in C57BL/6J mouse in circulatory system at 30 mg/kg,po and measured after 3 hrs; type: ADME, organism-based; details: read-out: Drug uptake
[9] = Oral bioavailability in C57BL/6J mouse at 30 mg/kg and measured after 2 hrs by LC-MS/MS analysis; type: ADME, organism-based; details: in vivo
[10] = Drug uptake in mouse hepatocytes at 1 to 100 uM incubated for 5 mins at 37 degreeC by LC-MS/MS analysis; type: ADME, cell-based, Hepatocyte; details: dose 1-100 µM
[11] = Drug distribution in C57BL/6J mouse in circulatory system at 30 mg/kg,po and measured after 1 hrs by LC-MS/MS analysis; type: ADME, organism-based; details: read-out: Drug uptake
Mus musculus [12] = assay: Anti-hyperglycemic activity against diet induced obese C57BL/6J mouse assessed as reduction in AUCglucose level at 100 mg/kg ,po and measured upto 180 mins by OGTT; type: functional; design: scale not given: the % may be the effect or the level left; details: 3 h
[13] = Clearance in C57BL/6J mouse at 3 mg/kg,iv and measured after 2 hrs by LC-MS/MS analysis; type: ADME, organism-based; details: in vivo
[14] = Half life in C57BL/6J mouse at 3 mg/kg,iv and measured after 2 hrs by LC-MS/MS analysis; type: ADME, organism-based; details: in vivo
[15] = Volume of distribution at steady state in C57BL/6J mouse at 3 mg/kg,iv and measured after 2 hrs by LC-MS/MS analysis; type: ADME, organism-based; details: in vivo, read-out: Vdss
[16] = Cmax in C57BL/6J mouse at 30 mg/kg,po and measured after 2 hrs by LC-MS/MS analysis; type: ADME, organism-based; design: dose 30 mg/kg, time 2 hrs, route po; details: in vivo
Mus musculus [17] = assay: Anti-hyperglycemic activity against diet induced obese C57BL/6J mouse assessed as reduction in AUCglucose level at 30 mg/kg ,po and measured upto 180 mins by OGTT; type: functional; design: scale not given: the % may be the effect or the level left; details: 3 h
[18] = Hypoglycemic activity in normoglycemic C57BL/6J mouse assessed as decrease in blood glucose level at 300 mg/kg ,po and measured upto 180 mins by glucose analysis; type: toxicity, organism-based; details: in vivo, 3 h
[19] = Hypoglycemic activity in normoglycemic C57BL/6J mouse at 300 mg/kg ,po and measured upto 180 mins by glucose analysis; type: toxicity, organism-based; details: in vivo, 3 h
[20] = Inhibition of drug uptake in mouse hepatocytes at 1 to 100 uM incubated for 5 mins in presence of rifamycin SV by LC-MS/MS analysis; type: cell-based, Hepatocyte; details: dose 1-100 µM
[21] = Drug uptake in mouse hepatocytes at 1 to 100 uM incubated for 5 mins at 4 degreeC by LC-MS/MS analysis; type: ADME, cell-based, Hepatocyte; details: dose 1-100 µM
[22] = Half life in C57BL/6J mouse at 1 mg/kg,iv and measured after 2 hrs by LC-MS/MS analysis; type: ADME, organism-based; details: in vivo
[23] = Clearance in C57BL/6J mouse at 1 mg/kg,iv and measured after 2 hrs by LC-MS/MS analysis; type: ADME, organism-based; details: in vivo
Mus musculus [24] = assay: Anti-hyperglycemic activity against diet induced obese C57BL/6J mouse assessed as blood glucose level at 10 to 300 mg/kg ,po and measured upto 180 mins by OGTT; type: functional, organism-based; details: dose 10-300 mg/kg
[25] = Hypoglycemic activity in normoglycemic C57BL/6J mouse assessed as decrease in blood glucose level at 100 mg/kg ,po and measured upto 180 mins by glucose analysis; type: toxicity, organism-based; details: in vivo, 3 h
[26] = AUC(0 to 24 hrs) in C57BL/6J mouse at 30 mg/kg,po and measured after 2 hrs by LC-MS/MS analysis; type: ADME, organism-based; design: time 2 hrs, dose 30 mg/kg, route po; details: in vivo
[27] = Volume of distribution at steady state in C57BL/6J mouse at 1 mg/kg,iv and measured after 2 hrs by LC-MS/MS analysis; type: ADME, organism-based; details: in vivo, read-out: Vdss

SMILES: O=C(Nc1ncc(CN2CCCC2C(=O)O)s1)C(Oc1ccc(F)cc1F)c1ccc(S(=O)(=O)C2CC2)cc1 (centres undefined)
EC50 (Hexokinase-4): > 10000 nM

SMILES: O=C(O)c1cccc(Oc2cnc(NC(=O)C(Oc3ccc(F)cc3F)c3ccc(S(=O)(=O)C4CC4)cc3)s2)c1 (centres undefined)
EC50 (Hexokinase-4): 2730 nM

SMILES: CC(Oc1ccc(F)cc1F)(C(=O)Nc1nc(CC(=O)O)c(Cl)s1)c1ccc(S(=O)(=O)N2CCCCC2)cc1 (centres undefined)
Activity [2]: 60% | EC50 (Hexokinase-4): > 20000 nM

SMILES: CC(C)(Oc1ccc(F)cc1F)C(=O)Nc1ncc(Oc2ccc(C(=O)O)cc2)s1
concentration at 1 h [3]: 23.3 µM | EC50 (Hexokinase-4): 6200 nM | concentration at 1 h [4]: 8.8 µM | concentration at 3 h [5]: 1400 nM | concentration at 3 h [6]: 11.1 µM

SMILES: O=C(O)C1CCN(Cc2cnc(NC(=O)C(Oc3ccc(F)cc3F)c3ccc(S(=O)(=O)C4CC4)cc3)s2)CC1 (centres undefined)
EC50 (Hexokinase-4): > 10000 nM

SMILES: CC(C)(Oc1ccc(F)cc1F)C(=O)Nc1nc(CC(=O)O)c(Cl)s1
concentration at 3 h [8]: 85 µM | bioavailability [9]: 100% | Drug uptake [10]: < 5% | half-life [22]: 60 min | clearance [23]: 3.5 mL/min/kg | concentration at 1 h [11]: 220 µM | concentration at 1 h [3]: 111 µM | Cmax [16]: 326 µM | EC50 (Hexokinase-4): 7000 nM | Activity (Mus musculus [24]): Dose-Dependent Effect | Activity [25]: < 60 mg/dL | inhibition (INH) ([20]; hepatocytes, 5 min, 100 µM): Not Active | Drug uptake [21]: 5% | AUC(0-t) at 2 h [26]: 802 µM·h | concentration at 3 h [6]: 104 µM | Vd [27]: 0.4 L/kg

SMILES: O=C(O)c1ccc(Oc2cnc(NC(=O)C(Oc3ccc(F)cc3F)c3ccc(S(=O)(=O)N4CCCCC4)cc3)s2)cc1 (centres undefined)
fold change (FC) [1]: 3.4

The next lines start with results.

EC50 (Hexokinase-4): 400 nM
SMILES: O=C(O)Cc1ccc(Oc2cnc(NC(=O)C(Oc3ccc(F)cc3F)c3ccc(S(=O)(=O)C4CC4)cc3)s2)cc1 (centres undefined)

EC50 (Hexokinase-4): 240 nM | fold change (FC) [1]: 3.76
SMILES: O=C(O)c1ccc(Oc2cnc(NC(=O)C(Oc3ccc(F)cc3F)c3ccc(S(=O)(=O)N4CCCC4)cc3)s2)cc1 (centres undefined)

EC50 (Hexokinase-4): 310 nM | fold change (FC) [1]: 3.04
SMILES: O=C(O)c1ccc(Oc2cnc(NC(=O)C(Oc3ccc(F)cc3F)c3ccc(S(=O)(=O)C4CCOCC4)cc3)s2)cc1 (centres undefined)

EC50 (Hexokinase-4): 330 nM | fold change (FC) [1]: 3
SMILES: O=C(O)c1ccc(Oc2cnc(NC(=O)C(Oc3ccc(F)cc3F)c3ccc(S(=O)(=O)N4CCOCC4)cc3)s2)cc1 (centres undefined)

EC50 (Hexokinase-4): 190 nM | fold change (FC) [1]: 11.4
SMILES: O=C(O)c1ccc(Oc2cnc(NC(=O)C(Oc3ccc(F)cc3F)c3ccc(S(=O)(=O)C4CC4)cc3)s2)cc1 (centres undefined)

EC50 (Hexokinase-4): 450 nM
SMILES: O=C(O)c1ccc(Cc2cnc(NC(=O)C(Oc3ccc(F)cc3F)c3ccc(S(=O)(=O)C4CC4)cc3)s2)cc1 (centres undefined)

AUC(0-t) [7]: 22 µM·h | concentration at 3 h [8]: 2.7 µM | bioavailability [9]: 86% | Drug uptake [10]: 30% | concentration at 1 h [11]: 6 µM | clearance [13]: 32.6 mL/min/kg | concentration at 1 h [3]: 215 µM | half-life [14]: 130 min | Vd [15]: 1.67 L/kg | Cmax [16]: 13.3 µM | EC50 (Hexokinase-4): 34 nM | fold change (FC) [1]: 12.2 | inhibition at 5 min, up to 100 µM ([20]; mouse hepatocytes, with rifamycin SV): 90% | Drug uptake [21]: < 5% | concentration at 3 h [6]: 184 µM
SMILES: O=C(O)c1ccc(Oc2cnc(NC(=O)[C@H](Oc3ccc(F)cc3F)c3ccc(S(=O)(=O)C4CC4)cc3)s2)cc1
Activity (Mus musculus [12]): 34% | Activity (Mus musculus [17]): 21% | Activity [18]: Active | Activity [19]: Not Active

EC50 (Hexokinase-4): 690 nM
SMILES: O=C(O)c1ccc(Oc2cnc(NC(=O)[C@@H](Oc3ccc(F)cc3F)c3ccc(S(=O)(=O)C4CC4)cc3)s2)cc1

EC50 (Hexokinase-4): 2300 nM
SMILES: O=C(O)C#Cc1cnc(NC(=O)C(Oc2ccc(F)cc2F)c2ccc(S(=O)(=O)C3CC3)cc2)s1 (centres undefined)

EC50 (Hexokinase-4): 500 nM
SMILES: O=C(O)Cc1nc(NC(=O)C(Oc2ccc(F)cc2F)c2ccc(S(=O)(=O)N3CCCCC3)cc2)sc1Cl (centres undefined)
